Read-outs that look alike come from different tables or passages of the source.
How the values were obtained:
human M2 receptor [1] = molecular target: T1, human M2 receptor (Homo sapiens, UniProt P08172); format: cell-based; settings: α >1 = positive cooperativity
T1 sequence (P08172 1-466): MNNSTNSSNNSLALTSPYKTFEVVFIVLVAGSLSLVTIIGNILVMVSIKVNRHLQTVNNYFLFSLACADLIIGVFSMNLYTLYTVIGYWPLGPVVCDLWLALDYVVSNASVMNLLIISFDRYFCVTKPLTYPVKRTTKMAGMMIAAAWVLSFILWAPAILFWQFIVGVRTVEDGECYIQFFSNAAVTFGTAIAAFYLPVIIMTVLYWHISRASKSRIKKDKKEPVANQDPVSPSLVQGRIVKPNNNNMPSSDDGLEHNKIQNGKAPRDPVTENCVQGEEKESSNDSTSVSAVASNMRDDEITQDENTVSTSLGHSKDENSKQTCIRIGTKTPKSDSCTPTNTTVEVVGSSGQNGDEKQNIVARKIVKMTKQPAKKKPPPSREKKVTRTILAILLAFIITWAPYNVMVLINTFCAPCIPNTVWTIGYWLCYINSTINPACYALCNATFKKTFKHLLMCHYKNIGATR

human M2 receptor [2] = molecular target: T1, human M2 receptor; settings: for Emax: read-out: Efficiency, boosting of the acetylcholine effect at EC20 acetylcholine concentration
[3] = shift of acetylcholine dose-response curve (Allosteric EC50 shift)
[4] = Receptor activity EC50, allosteric potency at EC20 acetylcholine, M2-GIRK1/4 reporter cells, in some cases mean of two or more determinations
[5] = shift in the acetylcholine dose-response curve (Allosteric EC50 shift, GraphPad PRISM)
[6] = Receptor activity EC50, M2-GIRK1/4 activation test, acetylcholine at EC20, allosteric potency, in some cases mean values from two or more determinations

Cooperativity (alpha factor) (human M2 receptor [1]; [3]) | Cooperativity (alpha factor) (human M2 receptor [1]; [5]) | EC50 (human M2 receptor [2]; [6]) [nM] | SMILES | further results
61 | – | – | CC(C)C(NC(=O)c1cn(-c2c(F)cc(F)cc2F)c2nc(N3C[C@@H](O)CC3=O)ccc2c1=O)C(F)(F)F (single isomer, unassigned) [Example 527] | EC50 (human M2 receptor [2]; [4]): 5 nM; Emax (human M2 receptor [2]; M2-GIRK1/4 reporter cells): 100%
72 | – | – | CCC(NC(=O)c1cn(-c2c(F)cc(F)cc2F)c2nc(N3C[C@@H](O)CC3=O)ccc2c1=O)C(F)(F)C(F)(F)F (single isomer, unassigned) [Example 521] | Efficiency (human M2 receptor [2]; boosting of the acetylcholine effect at EC20 acetylcholine concentration, M2-GIRK1/4 reporter cells): 100.0%; EC50 (human M2 receptor [2]; read-out: Receptor activity EC50, allosteric potency at EC20 acetylcholine, M2-GIRK1/4 reporter cells, in some cases mean of two or more determinations): 2 nM
– | 24 | 7 | O=C(N[C@@H](C1CC1)C(F)(F)F)c1cn(-c2c(F)cc(F)cc2Cl)c2nc(N3C[C@@H](O)CC3=O)ccc2c1=O [Example 338, 1-(2-Chloro-4,6-difluorophenyl)-N-[(1 S)-1-cyclopropyl-2,2,2-trifluoroethyl]-7-[(4S)-4-hydroxy-2-oxopyrrolidin-1-yl]-4-oxo-1,4-dihydro-1,8-naphthyridine-3-carboxamide] | –
– | 36 | 18 | O=C(NC12CC(C(F)(F)F)(C1)C2)c1cn(-c2c(F)cc(F)cc2F)c2nc(N3C[C@@H](O)[C@H](O)C3)ccc2c1=O [Example 371, 7-[(3R,4R)-3,4-Dihydroxypyrrolidin-1-yl]-4-oxo-N-[3-(trifluoromethyl)bicyclo[1.1.1]pent-1-yl]-1-(2,4,6-trifluorophenyl)-1,4-dihydro-1,8-naphthyridine-3-carboxamide] | –
49 | – | – | CC(C)C(NC(=O)c1cn(-c2c(F)cc(F)cc2F)c2nc(N3C[C@@H](O)[C@H](O)C3)ccc2c1=O)C(F)(F)F (single isomer, unassigned) [Example 553] | EC50 (human M2 receptor [2]; [4]): 13 nM; Emax (human M2 receptor [2]; M2-GIRK1/4 reporter cells): 97.5%
34 | – | – | C[C@H]1CN(c2ccc3c(=O)c(C(=O)N[C@@H](C4CC4)C(F)(F)F)cn(-c4c(F)cc(F)cc4F)c3n2)C(=O)N1 [Example 449, N-[(1 S)-1-Cyclopropyl-2,2,2-trifluoroethyl]-7-[(4S)-4-methyl-2-oxoimidazolidin-1-yl]-4-oxo-1-(2,4,6-trifluorophenyl)-1,4-dihydro-1,8-naphthyridine-3-carboxamide] | EC50 (human M2 receptor [2]; [4]): 15 nM; Emax (human M2 receptor [2]; M2-GIRK1/4 reporter cells): 91%

More lines, now with the values behind:

SMILES | Cooperativity (alpha factor) (human M2 receptor [1]; [3]) | Cooperativity (alpha factor) (human M2 receptor [1]; [5]) | EC50 (human M2 receptor [2]; [6]) [nM] | further results
O=C(Nc1c(Cl)cccc1Cl)c1cn(-c2ccc(F)cc2F)c2nc(NCC(F)(F)F)ccc2c1=O [Example 163, N-(2,6-Dichlorophenyl)-1-(2,4-difluorophenyl)-4-oxo-7-[(2,2,2-trifluoroethyl)amino]-1,4-dihydro-1,8-naphthyridine-3-carboxamide] | – | 13 | 173 | –
CC[C@@H](NC(=O)c1cn(-c2ccc(F)cc2F)c2nc(N3C[C@@H]4C(COC)[C@@H]4C3)ccc2c1=O)C(F)(F)F (stereo partly drawn) [Example 190, 1-(2,4-Difluorophenyl)-7-[(1R,5S)-6-(methoxymethyl)-3-azabicyclo[3.1.0]hex-3-yl]-4-oxo-N-[(2R)-1,1,1-trifluorobutan-2-yl]-1,4-dihydro-1,8-naphthyridine-3-carboxamide] | – | 12 | 46 | –
O=C(NC(c1c(F)cccc1F)C(F)(F)F)c1cn(-c2ccc(F)cc2F)c2nc(N3C[C@@H](O)CC3=O)ccc2c1=O (single isomer, unassigned) [Example 246] | – | 53 | 23 | –
CC[C@H](NC(=O)c1cn(-c2ccc(F)cc2F)c2nc(NCCF)ccc2c1=O)C(F)(F)F [Example 87, 1-(2,4-Difluorophenyl)-7-[(2-fluoroethyl)amino]-4-oxo-N-[(2S)-1,1,1-trifluorobutan-2-yl]-1,4-dihydro-1,8-naphthyridine-3-carboxamide] | – | 26 | 129 | –
CC[C@@H](NC(=O)c1cn(-c2ccc(F)cc2F)c2nc(N3CCC(O)C3=O)ccc2c1=O)C(F)(F)F (single isomer, unassigned) [Example 225] | – | 33 | 363 | –

Reference: patent US20190367516A1 (Bayer Pharma Aktiengesellschaft, priority 2015, published 2019)
